Consider one substance from patent US12103952B2, “Methods for expressing proteins in axons” (Cornell University, priority 2010, dated 2024).

One assay relates to pCREB. Description: Nuclear pCREB, pTrkA and pErk5 immunofluorescence after axonal NGF in compartmented cultures. The assay is classed as cell-based, rat. Conditions: 30 ng/ml NGF on axons, 20 min. The text has this:
FIGS. 9A-E are data showing that axonal CREB is required for CRE-dependent transcription and NGF-mediated DRG survival. (A) DRG axons in compartmented cultures were transfected with CREB siRNA in the axon compartment only, and CREB levels were detected using a CREB antibody. Axons crossing the compartment divider were retrogradely labeled with WGA-Alexa488. All compartments were maintained in NGF-containing media throughout the experiment. Scale bar, 50 μm. (B) Quantification of data in (A). Immunofluorescence levels in each compartment were normalized to fluorescence signals from cultures treated with non-targeting siRNA. *p<0.0001. Numbers on bars represent n axons per condition. […] After 48 hours, 30 ng/ml NGF was added to the axon compartment for 20 min, after which pCREB levels in nuclei were quantified by immunofluorescence. *p=0.0004. […]
FIGS. 10A-G are data showing selective CREB knockdown in distal axons, but not proximal axons determined by compartmentalized siRNA transfection. […] (B) Quantification of data in (A). FISH levels in each compartment were normalized to fluorescence signals from cultures treated with non-targeting siRNA. β-actin mRNA FISH signals were unaffected by CREB-specific siRNA. *p<0.001. […] (C) Transfection was as in FIG. 9A, except CREB knockdown was assessed by Western blot instead of immunofluorescence. […]

The test system of assay [1] is CRE-dependent transcription. Description: CRE-luciferase adenovirus reporter in DRG neurons. It counts as cell-based, rat.

As for NGF: nerve growth factor, in the assay with pCREB, the “levels of pCREB in the nucleus” value is on record as “increased levels of pCREB in the nucleus”. The luciferase levels entry in assay [1] (axonal application of NGF) is given as “increased luciferase levels”. Also, in assay [1] (bath application of NGF, 0-100 ng/ml, 24 hours), the luciferase immunofluorescence entry was “dose-dependent increase in luciferase immunofluorescence”.
